# Results: US10179128B2, “Regimens for treating and preventing lysosomal disorders and degenerative disorders of the central nervous system” (Amicus Therapeutics, Inc., priority 2015, dated 2019)
# Where a chain is given by its changes, count along the chain named. Where a name gives a salt, the structure may show the parent alone.
# Tests used:
# [1] = biological target: T1, recombinant human GCase (rhGCase) (Homo sapiens, UniProt P04062); assay: In vitro thermal stability assay of rhGCase (SYPRO Orange fluorescence); type: binding; details: 100 μM compound, neutral pH; enzyme alone approximately 53° C.
# T1 sequence (P04062 40-536): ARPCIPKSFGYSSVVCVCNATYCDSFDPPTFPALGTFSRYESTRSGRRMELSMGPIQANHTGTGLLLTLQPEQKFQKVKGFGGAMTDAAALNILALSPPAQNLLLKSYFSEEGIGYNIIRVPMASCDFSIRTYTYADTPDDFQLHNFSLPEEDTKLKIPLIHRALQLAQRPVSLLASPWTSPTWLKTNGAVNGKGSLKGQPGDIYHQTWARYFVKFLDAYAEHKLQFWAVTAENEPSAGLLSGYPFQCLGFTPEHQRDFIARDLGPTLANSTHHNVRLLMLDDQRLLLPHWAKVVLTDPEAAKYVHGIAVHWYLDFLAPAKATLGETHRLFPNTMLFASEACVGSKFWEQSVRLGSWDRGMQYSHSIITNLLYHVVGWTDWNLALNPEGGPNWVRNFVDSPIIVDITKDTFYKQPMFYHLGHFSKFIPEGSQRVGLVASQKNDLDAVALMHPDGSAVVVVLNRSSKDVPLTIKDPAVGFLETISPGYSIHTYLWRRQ
# Source text: A dye (SYPRO® Orange) that fluoresces when it binds to hydrophobic regions of enzyme was used to assess stability, because unstable enzyme that loses its native conformation likely exposes internal hydrophobic amino acids, leading to an increase in fluorescence.
# [2] = Brain tissue washout / efflux half-life; type: in vivo
# Source text: To evaluate the potential therapeutic effect of a chaperone, the washout period can be examined to determine the length of time required to washout the inhibitor. Otherwise, enzyme that is successfully trafficked to the lysosome may not have optimal functionality because the chaperone, which also functions as a competitive inhibitor, can continue to compete with the substrate for the enzyme active site.
# [3] = Bioavailability (plasma as percent oral dose); type: in vivo
# [4] = Blood-brain barrier penetration in mice, oral 30 mg/kg FBE; type: in vivo; details: for Kp / Cmax: mouse, oral, 30 mg/kg; for Kp: brain and plasma, read-out: Barin/Plasma Cmax (%); for Cmax: plasma
# Source text: The ability of a drug to penetrate the blood-brain barrier can be an important function. Without the capability of penetrating into the brain, the drug will not likely have a therapeutic effect in tissues in the brain.
# [5] = biological target: T2, GCase (Mus musculus, UniProt P17439); assay: ED50 in brain; type: in vivo
# T2 construct: from tissue; host or cells: brain
# T2 sequence (P17439 20-515): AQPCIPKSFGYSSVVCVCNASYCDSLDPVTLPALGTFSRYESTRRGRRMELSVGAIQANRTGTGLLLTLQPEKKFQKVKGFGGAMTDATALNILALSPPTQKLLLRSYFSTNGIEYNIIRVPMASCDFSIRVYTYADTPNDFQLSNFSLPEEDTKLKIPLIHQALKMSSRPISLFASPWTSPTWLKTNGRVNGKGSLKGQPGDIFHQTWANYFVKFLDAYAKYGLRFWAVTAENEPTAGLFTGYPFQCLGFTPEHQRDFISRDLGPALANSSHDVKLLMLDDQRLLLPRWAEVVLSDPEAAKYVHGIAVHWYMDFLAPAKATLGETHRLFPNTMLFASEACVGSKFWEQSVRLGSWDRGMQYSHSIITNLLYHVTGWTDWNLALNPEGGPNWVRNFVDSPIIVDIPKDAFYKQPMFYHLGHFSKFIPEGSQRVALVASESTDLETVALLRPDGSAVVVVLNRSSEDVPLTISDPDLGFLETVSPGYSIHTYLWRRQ
# [6] = pKa; type: physicochemical
# [7] = biological target: T3, rhGCase (Homo sapiens, UniProt P04062); details: rats
# T3 sequence (P04062 40-536): T1 sequence (P04062 40-536)
# [8] = biological target: T4, GCase N370S (Homo sapiens, UniProt P04062, N409S); assay: cell-based
# T4 sequence (P04062 40-536 N409S): T1 sequence (P04062 40-536) with N370S
# [9] = Blood-brain barrier penetration in rats, single 100 mg/kg FBE p.o.; type: in vivo; details: rat, brain and plasma, po, exposure in nM-hr, read-out: total brain exposure as % of plasma exposure
# [10] = tested on: L444P mice; assay: Example 6: daily oral dosing of Compound 3 in L444P mice; type: in vivo
# Description: (§1) The purpose of this study was to first confirm that the GlcSph substrate was elevated in N370S and L444P mutant mouse models.
# (§2) Both compounds were administered daily via an oral route.
# [11] = tested on: L444P mice; assay: Example 7: daily dosing of Compound 3 in L444P mice over four weeks, fixed and ascending doses in drinking water; type: in vivo
# Description: Both fixed and ascending dosing schemes were used and were administered in drinking water. Four fixed dose groups, 0.01 mg/kg FBE, 0.1 mg/kg FBE, 1 mg/kg FBE, and 10 mg/kg FBE were used. A fifth group, which used an ascending dose, was also included, and it began at 0.01 mg/kg FBE and increased by 10-fold each week, with a dose during the final week of 10 mg/kg FBE.
# [12] = tested on: L444P mice; assay: Example 8: additional dosing regimens of Compound 3 in L444P mice; type: in vivo
# Description: The purpose of this study was to improve dosing choices based on data collected from Example 7. Specific tissues of L444P mice that were measured were the liver, brain, spleen, bone, marrow, and plasma. […] In Example 8, two dosing strategies were used, fixed dose and constant weekly dose. All doses were administered orally in drinking water. Fixed dose mice were given 1 mg/kg FBE either daily, two days a week, or three days a week. Constant weekly dose mice were given a total of 7 mg/kg FBE per week, either three days a week (Monday, Wednesday, Friday), two days a week (Monday, Thursday), or daily. For example, mice receiving 3 doses per week (Monday, Wednesday, Friday) would receive 2.33 mg/kg FBE in each dose, while mice receiving doses twice a week (Monday, Thursday) would receive 3.5 mg/kg FBE per dose.
# [13] = tested on: L444P mice; assay: Comparison of Examples 6-8 in L444P mice; type: in vivo
# Source text: Changes in brain, liver, and spleen GCase activity were compared across the studies of Examples 6-8. In FIGS. 20 and 21, C1 denotes the study from Example 6, C2 denotes the study from Example 7, and C3 denotes the study from Example 8.
# [14] = tested on: N370S mice; assay: Example 6: daily oral dosing of IFG tartrate in N370S mice; type: in vivo
# Description: as §1, §2
# [15] = mice, oral 30 mg/kg FBE, brain tissue
# [16] = all dose groups, Day 1 and Day 30 after 24-hour washout
# [17] = ascending 0.01-10 mg/kg FBE dose
compound,measurement,setting,value
O[C@H]1[C@H](O)CNC[C@@H]1C(F)F [Compound 1],temperature of peak fluorescence (unfolding),[1],65 °C
same,half-life,[2],~1.4 h
same,bioavailability,[3],106%
same,Brain Cmax at 30 mg/kg,[4]; [15],9.7 µM
same,Kp,[4],0.115
same,Cmax,[4],84.5 µM
same,ED50,[5],5.2 mg/kg
same,pKa,[6],7.1
same,normalized GCase activity in plasma versus rhGCase alone,[7]; 3 mg/kg oral gavage 30 minutes before IV rhGCase,sustained a higher normalized GCase activity in plasma longer
same,rhGCase western blot band versus no chaperone,"[7]; 3 mg/kg, 5 minute and 10 minute intervals",a more intense protein band
same,Emax,[8],106%
Cl.O[C@H]1[C@H](O)CNC[C@@H]1C(F)F [Compound 2],crossing of the blood-brain barrier,[4]; mice,capable of crossing the blood-brain barrier
same,Brain Cmax at 30 mg/kg,[4]; [15],9.7 µM
O=C(O)/C=C/C(=O)O.O[C@H]1[C@H](O)CNC[C@@H]1C(F)F [Compound 3],Kp,[9],0.85
same,enhancement of GCase activity in liver,[10]; 10 mg/kg FBE daily,7.6 fold
same,GlcSph in spleen versus control,[10]; 10 mg/kg FBE daily oral,significant reduction of GlcSph
same,enhancement of GCase activity in brain,"[10]; 10 mg/kg FBE daily, almost equivalent to wild-type activity",2.8 fold
same,"GCase activity in brain, liver and spleen versus vehicle",[11]; 0.01 mg/kg FBE and 0.1 mg/kg FBE,did not show significant differences
same,brain GlcSph versus vehicle,[11]; 1 mg/kg FBE,increase in GlcSph
same,liver GlcSph versus vehicle,[11]; 1 mg/kg FBE,decrease in GlcSph
same,spleen GlcSph versus vehicle,[11]; 1 mg/kg FBE,decrease in GlcSph
same,increase in brain GCase activity versus vehicle,[11]; 1 mg/kg FBE daily,almost a two-fold increase
same,increase in liver GCase activity versus vehicle,[11]; 1 mg/kg FBE daily,5 fold
same,increase in spleen GCase activity versus vehicle,[11]; 1 mg/kg FBE daily,two-fold increase
same,brain GlcCer concentration versus vehicle,"[11]; 1 mg/kg FBE, after 30 days",No significant difference
same,plasma GlcCer versus vehicle,[11]; [16],no significant increases or decreases
same,plasma GlcSph versus vehicle,[11]; [16],no significant increases or decreases
same,liver GlcCer concentration versus vehicle,"[11]; all dose groups, after 30 days",No significant differences
same,brain GlcSph concentration versus vehicle,[11]; [17],increase in substrate concentration
same,increase in brain GCase activity versus vehicle,[11]; [17],about three-fold
same,increase in liver GCase activity versus vehicle,[11]; [17],about 8 fold
same,increase in spleen GCase activity versus vehicle,[11]; [17],about 4 fold
same,spleen GlcSph concentration versus vehicle,[11]; [17],reduction in concentration
same,brain GlcCer concentration versus vehicle,"[11]; ascending dose, after 30 days",increased
same,brain GCase activity versus vehicle,[12]; 1 mg/kg FBE daily dose,increased and was significant
same,liver GlcSph concentration versus vehicle,[12]; 1 mg/kg FBE daily dose,significant reduction
same,spleen GlcSph concentration versus vehicle,[12]; 1 mg/kg FBE daily dose,significant reduction
same,plasma concentration of GlcCer,[12]; across all doses,no significant differences
same,brain GCase activity,"[13]; 0-10 mg/kg FBE ascending dose, studies of Examples 6 and 7",increased
same,brain GCase activity,"[13]; 1 mg/kg FBE dose, Example 7 and Example 8",increased
same,liver GCase activity,"[13]; 1 mg/kg FBE dosing regimens, Example 7 and Example 8",elevated
same,brain GlcSph level versus vehicle,[13]; 10 mg/kg FBE,increased level of GlcSph over the vehicle
same,brain GlcSph level versus vehicle,[13]; ascending dose (0-10 mg/kg FBE),increased level of GlcSph over the vehicle
same,GlcSph substrate level change in the spleen,"[13]; ascending dose (0-10 mg/kg FBE) and 1 mg/kg FBE dose, Examples 6-8",significant
same,liver GCase activity,"[13]; ascending dose, Example 6 and Example 7",higher GCase activity
"OC[C@H]1CNC[C@@H](O)[C@@H]1O [IFG tartrate, isofagomine tartrate]",crossing of the blood-brain barrier,[4]; mice,capable of crossing the blood-brain barrier
same,peak compound concentration in brain,"[4]; mice, oral 30 mg/kg FBE, brain tissue, value in nM",30 nM
same,Kp,[9],0.29
same,GlcSph in liver versus control,[14]; 100 mg/kg FBE daily oral,reduction in GlcSph substrate
same,GlcSph in spleen versus control,[14]; 100 mg/kg FBE daily oral,significant reduction of GlcSph
same,reduction in bone GlcSph concentration,[14]; bone,31%
same,reduction of GlcSph in marrow,[14]; marrow,45%
"OC[C@H]1CNC[C@@H](O)[C@@H]1O [Isofagomine, isofagomine, reference compound]",Brain tissue efflux (half-life),[2],2.9 h
same,half-life,[2],~3 h
same,bioavailability,[3],53%
same,Brain Cmax at 30 mg/kg,[4]; [15],0.3 µM
same,Kp,[4],0.0165
same,Cmax,[4],17.5 µM
same,ED50,[5],56.4 mg/kg
same,pKa,[6],8.4
